Legend:
[1] = Ionization study in different pH environments (calculated from pKa); type: physicochemical
Procedure: The percentage ionization of Epalrestat in different pH environments of the human gastrointestinal tract was calculated based on the pKa value (3.61).

[2] = cited from earlier work
[3] = cited from earlier work; remark: listed apart in the source
[4] = immediate release 50 mg dosage, healthy adult volunteers

- % Ionized ([1]; pH 1.2): 0%
- % Ionized ([1]; pH 3.0): 20.0%
- % Ionized ([1]; pH 3.5): 44.0%
- % Ionized ([1]; pH 4.0): 71.0%
- % Ionized ([1]; pH 4.5): 89.0%
- % Ionized ([1]; pH 5.0): 96.0%
- % Ionized ([1]; pH 5.5): 99.0%
- % Ionized ([1]; pH 6.0): 100.0%
- % Ionized ([1]; pH 6.8): 100.0%
Compound: C/C(C=C1SC(=S)N(CC(=O)O)C1=O)=C\c1ccccc1 (single isomer, unassigned) [epalrestat, 5-[(1Z,2E)-2-methyl-3-phenylpropenylidene]-4-oxo-2-thioxo-3-thiazolidineacetic acid]
- Plasma level ([2]; 4 hours after administration of 50 mg tablets of epalrestat free acid): 370 ng/mL
- Cmax [2, 4]: 3900 ng/mL
- t1/2 [2, 4]: 1.8 h
- tmax [2, 4]: 1.05 h
- total AUC0-∞ [2, 4]: 6400 ng·h/mL
- pKa value [3]: 3.61

— US9566269B2, “Modified release compositions of epalrestat or a derivative thereof and methods for using the same” (Bionevia Pharmaceuticals Inc., priority 2011, dated 2017)
